# ± gives the expanded uncertainty stated by the source.
# Experiment: xn = mol fraction of the nth substance listed
# Details: Constant-volume piezometry
structure (smiles),measurement,setting,value
CCCCC [pentane] + CCCO,mass density,"553.15 K, 10864 kPa, Fluid (supercritical or subcritical phases), x1 = 0.9",311.86 ± 1.6 kg/m3
same,mass density,"553.15 K, 11147 kPa, Fluid (supercritical or subcritical phases), x1 = 0.2",390.67 ± 2 kg/m3
same,mass density,"553.15 K, 11334 kPa, Fluid (supercritical or subcritical phases), x1 = 0.8",314.89 ± 1.6 kg/m3
same,mass density,"553.15 K, 12137 kPa, Fluid (supercritical or subcritical phases), x1 = 0.9",333.53 ± 1.7 kg/m3
same,mass density,"553.15 K, 12374 kPa, Fluid (supercritical or subcritical phases), x1 = 0.8",333.35 ± 1.7 kg/m3
same,mass density,"553.15 K, 13032 kPa, Fluid (supercritical or subcritical phases), x1 = 0.2",418.04 ± 2.1 kg/m3
same,mass density,"553.15 K, 13118 kPa, Fluid (supercritical or subcritical phases), x1 = 0.8",344.85 ± 1.7 kg/m3
same,mass density,"553.15 K, 13951 kPa, Fluid (supercritical or subcritical phases), x1 = 0.9",353.59 ± 1.8 kg/m3
same,mass density,"553.15 K, 14669 kPa, Fluid (supercritical or subcritical phases), x1 = 0.8",361.39 ± 1.8 kg/m3
same,mass density,"553.15 K, 18451 kPa, Fluid (supercritical or subcritical phases), x1 = 0.2",469.6 ± 2.4 kg/m3
same,mass density,"553.15 K, 20863 kPa, Fluid (supercritical or subcritical phases), x1 = 0.9",406.66 ± 2 kg/m3
same,mass density,"553.15 K, 21933 kPa, Fluid (supercritical or subcritical phases), x1 = 0.8",417.56 ± 2.1 kg/m3
same,mass density,"553.15 K, 25921 kPa, Fluid (supercritical or subcritical phases), x1 = 0.2",508.72 ± 2.6 kg/m3
same,mass density,"553.15 K, 34331 kPa, Fluid (supercritical or subcritical phases), x1 = 0.8",465.95 ± 2.4 kg/m3
same,mass density,"553.15 K, 37494 kPa, Fluid (supercritical or subcritical phases), x1 = 0.2",546.06 ± 2.8 kg/m3
same,mass density,"563.15 K, 1429 kPa, Gas, x1 = 0.8",22.48 ± 0.07 kg/m3
same,mass density,"563.15 K, 1719 kPa, Gas, x1 = 0.2",24.88 ± 0.08 kg/m3
same,mass density,"563.15 K, 2200 kPa, Gas, x1 = 0.8",36.62 ± 0.11 kg/m3
same,mass density,"563.15 K, 3253 kPa, Gas, x1 = 0.8",58.3 ± 0.18 kg/m3
same,mass density,"563.15 K, 3644 kPa, Gas, x1 = 0.2",52.9 ± 0.16 kg/m3
same,mass density,"563.15 K, 3914 kPa, Fluid (supercritical or subcritical phases), x1 = 0.8",73.65 ± 0.37 kg/m3
same,mass density,"563.15 K, 4188 kPa, Fluid (supercritical or subcritical phases), x1 = 0.9",83.22 ± 0.42 kg/m3
same,mass density,"563.15 K, 4893 kPa, Fluid (supercritical or subcritical phases), x1 = 0.2",91.24 ± 0.46 kg/m3
same,mass density,"563.15 K, 5140 kPa, Fluid (supercritical or subcritical phases), x1 = 0.8",106.2 ± 0.54 kg/m3
same,mass density,"563.15 K, 5522 kPa, Fluid (supercritical or subcritical phases), x1 = 0.9",123.11 ± 0.62 kg/m3
same,mass density,"563.15 K, 5594 kPa, Fluid (supercritical or subcritical phases), x1 = 0.2",114.13 ± 0.58 kg/m3
same,mass density,"563.15 K, 5876 kPa, Fluid (supercritical or subcritical phases), x1 = 0.9",133.86 ± 0.68 kg/m3
same,mass density,"563.15 K, 6362 kPa, Fluid (supercritical or subcritical phases), x1 = 0.8",140.03 ± 0.71 kg/m3
same,mass density,"563.15 K, 6504 kPa, Fluid (supercritical or subcritical phases), x1 = 0.2",150.05 ± 0.77 kg/m3
same,mass density,"563.15 K, 6690 kPa, Fluid (supercritical or subcritical phases), x1 = 0.9",163.64 ± 0.83 kg/m3
same,mass density,"563.15 K, 6728 kPa, Fluid (supercritical or subcritical phases), x1 = 0.8",155.74 ± 0.79 kg/m3
same,mass density,"563.15 K, 6993 kPa, Fluid (supercritical or subcritical phases), x1 = 0.2",175.27 ± 0.9 kg/m3
same,mass density,"563.15 K, 7120 kPa, Fluid (supercritical or subcritical phases), x1 = 0.8",169.45 ± 0.86 kg/m3
same,mass density,"563.15 K, 7244 kPa, Fluid (supercritical or subcritical phases), x1 = 0.2",189.26 ± 0.98 kg/m3
same,mass density,"563.15 K, 7275 kPa, Fluid (supercritical or subcritical phases), x1 = 0.8",175.68 ± 0.9 kg/m3
same,mass density,"563.15 K, 7389 kPa, Fluid (supercritical or subcritical phases), x1 = 0.8",180.47 ± 0.92 kg/m3
same,mass density,"563.15 K, 7397 kPa, Fluid (supercritical or subcritical phases), x1 = 0.9",189.08 ± 0.96 kg/m3
same,mass density,"563.15 K, 7718 kPa, Fluid (supercritical or subcritical phases), x1 = 0.2",219.66 ± 1.1 kg/m3
same,mass density,"563.15 K, 7728 kPa, Fluid (supercritical or subcritical phases), x1 = 0.8",192.78 ± 0.98 kg/m3
same,mass density,"563.15 K, 7738 kPa, Fluid (supercritical or subcritical phases), x1 = 0.9",201.98 ± 1 kg/m3
same,mass density,"563.15 K, 8148 kPa, Fluid (supercritical or subcritical phases), x1 = 0.2",244.99 ± 1.3 kg/m3
same,mass density,"563.15 K, 8285 kPa, Fluid (supercritical or subcritical phases), x1 = 0.9",220.25 ± 1.1 kg/m3
same,mass density,"563.15 K, 8310 kPa, Fluid (supercritical or subcritical phases), x1 = 0.8",213.43 ± 1.1 kg/m3
same,mass density,"563.15 K, 8376 kPa, Fluid (supercritical or subcritical phases), x1 = 0.2",258.68 ± 1.3 kg/m3
same,mass density,"563.15 K, 8439 kPa, Fluid (supercritical or subcritical phases), x1 = 0.2",262.38 ± 1.3 kg/m3
same,mass density,"563.15 K, 8483 kPa, Fluid (supercritical or subcritical phases), x1 = 0.8",219.19 ± 1.1 kg/m3
same,mass density,"563.15 K, 8609 kPa, Fluid (supercritical or subcritical phases), x1 = 0.2",271.82 ± 1.4 kg/m3
same,mass density,"563.15 K, 8640 kPa, Fluid (supercritical or subcritical phases), x1 = 0.9",232.6 ± 1.2 kg/m3
same,mass density,"563.15 K, 8748 kPa, Fluid (supercritical or subcritical phases), x1 = 0.9",236.06 ± 1.2 kg/m3
same,mass density,"563.15 K, 8876 kPa, Fluid (supercritical or subcritical phases), x1 = 0.9",240.45 ± 1.2 kg/m3
same,mass density,"563.15 K, 8904 kPa, Fluid (supercritical or subcritical phases), x1 = 0.8",234.24 ± 1.2 kg/m3
same,mass density,"563.15 K, 8945 kPa, Fluid (supercritical or subcritical phases), x1 = 0.2",289.96 ± 1.5 kg/m3
same,mass density,"563.15 K, 8965 kPa, Fluid (supercritical or subcritical phases), x1 = 0.9",243.76 ± 1.2 kg/m3
same,mass density,"563.15 K, 9207 kPa, Fluid (supercritical or subcritical phases), x1 = 0.8",244.86 ± 1.2 kg/m3
same,mass density,"563.15 K, 9294 kPa, Fluid (supercritical or subcritical phases), x1 = 0.2",306.21 ± 1.6 kg/m3
same,mass density,"563.15 K, 9393 kPa, Fluid (supercritical or subcritical phases), x1 = 0.2",310.43 ± 1.6 kg/m3
same,mass density,"563.15 K, 9613 kPa, Fluid (supercritical or subcritical phases), x1 = 0.2",318.13 ± 1.6 kg/m3
same,mass density,"563.15 K, 9648 kPa, Fluid (supercritical or subcritical phases), x1 = 0.8",258.06 ± 1.3 kg/m3
same,mass density,"563.15 K, 10165 kPa, Fluid (supercritical or subcritical phases), x1 = 0.8",271.99 ± 1.4 kg/m3
same,mass density,"563.15 K, 10334 kPa, Fluid (supercritical or subcritical phases), x1 = 0.2",340.56 ± 1.7 kg/m3
same,mass density,"563.15 K, 10363 kPa, Fluid (supercritical or subcritical phases), x1 = 0.9",281.45 ± 1.4 kg/m3
same,mass density,"563.15 K, 10433 kPa, Fluid (supercritical or subcritical phases), x1 = 0.2",343.35 ± 1.7 kg/m3
same,mass density,"563.15 K, 10875 kPa, Fluid (supercritical or subcritical phases), x1 = 0.8",287.81 ± 1.4 kg/m3
same,mass density,"563.15 K, 11127 kPa, Fluid (supercritical or subcritical phases), x1 = 0.9",301.08 ± 1.5 kg/m3
same,mass density,"563.15 K, 11345 kPa, Fluid (supercritical or subcritical phases), x1 = 0.8",298.6 ± 1.5 kg/m3
same,mass density,"563.15 K, 11776 kPa, Fluid (supercritical or subcritical phases), x1 = 0.9",311.7 ± 1.6 kg/m3
same,mass density,"563.15 K, 11942 kPa, Fluid (supercritical or subcritical phases), x1 = 0.2",377.85 ± 1.9 kg/m3
same,mass density,"563.15 K, 12196 kPa, Fluid (supercritical or subcritical phases), x1 = 0.2",382.64 ± 1.9 kg/m3
same,mass density,"563.15 K, 12285 kPa, Fluid (supercritical or subcritical phases), x1 = 0.8",314.73 ± 1.6 kg/m3
same,mass density,"563.15 K, 12687 kPa, Fluid (supercritical or subcritical phases), x1 = 0.2",390.46 ± 2 kg/m3
same,mass density,"563.15 K, 13176 kPa, Fluid (supercritical or subcritical phases), x1 = 0.9",333.36 ± 1.7 kg/m3
same,mass density,"563.15 K, 13452 kPa, Fluid (supercritical or subcritical phases), x1 = 0.8",333.18 ± 1.7 kg/m3
same,mass density,"563.15 K, 14255 kPa, Fluid (supercritical or subcritical phases), x1 = 0.8",344.68 ± 1.7 kg/m3
same,mass density,"563.15 K, 14845 kPa, Fluid (supercritical or subcritical phases), x1 = 0.2",417.82 ± 2.1 kg/m3
